The text below walks through data of US20040092561A1, “Azolidinone-vinyl fused -benzene derivatives” (priority 2002, published 2004).

Test [1] concerns Akt/PKB phosphorylation in macrophages. As to the kind of experiment: Cell Based ELISA to Monitor PI3K Inhibition: Akt/PKB phosphorylation in Raw 264-7 macrophages after stimulation with C5a. The note with it: Mus musculus, RAW264.7, 50 nM C5a, 5 minutes, 20 minutes pretreatment, read-out: inhibition of C5a-mediated AKT-phosphorylation. Here is the method:
b) Cell Based ELISA to Monitor PI3K Inhibition
Measurement of Akt/PKB phosphorylation in macrophages after stimulation with C5a: Raw 264: Raw 264-7 macrophages (cultured in DMEM-F12 medium containing 10%
Fetal Calf serum and antibiotics) are plated at 20'000 cells/well in a 96 MTP 24 h before cell stimulation. Previous to the stimulation with 50 nM of Complement 5a during 5 minutes, Cells are serum starved for 2 h, and pretreated with inhibitors for 20 minutes. After stimulation cells are fixed in 4% formaldehyde for 20 minutes and washed 3 times in PBS containing 1% Triton X-100 (PBS/Triton). Endogenous peroxidase is blocked by a 20 minutes incubation in 0.6% H2O2 and 0.1% Sodium Azide in PBS/Triton and washed 3 times in PBS/Triton. Cells are then blocked by 60 minutes incubation with 10% fetal calf serum in PBS/Triton. Next, phosphorylated Akt/PKB is detected by an overnight incubation at 4° C. with first antibody (anti phospho Serine 473 Akt IHC, Cell Signaling) diluted 800-fold in PBS/Triton, containing 5% bovine serum albumin (BSA). After 3 washes in PBS/Triton, cells are incubated for 60 minutes with a peroxidase conjugated goat-anti-rabbit antibody ( 1/400 dilution in PBS/Triton, containing 5% BSA), washed 3 times in PBS/Triton, and 2 times in PBS and further incubated in 100 μl of substrate reagent solution (R&D) for 20 minutes. The reaction is stopped by addition of 50 μI of 1 M SO4H2 and absorbance is read at 450 nm.
The values indicated reflect the percentage of inhibition of AKT phoshorylation as compared to basal level. Said values show a clear effect of the azolidinone-vinyl fused-benzene compounds on the activation of AKT phosphorylation in macrophages.
(In general: ELISA stands for enzyme-linked immunosorbent assay.)

A further test has as its target PI3Kγ (Homo sapiens, UniProt P48736). Briefly: High Throughput PI3K Lipid Kinase Assay (Binding Assay), SPA with neomycin-coated beads. The settings on record: Human recombinant GST-PI3Kγ; [33P]γ-ATP; 180 minutes, room temperature. Type of test: biochemical. Here is the method:
a) High Throughput PI3K Lipid Kinase Assay (Binding Assay)
The assay combines the scintillation proximity assay technology (SPA, Amersham) with the capacity of neomycin (a polycationic antibiotic) to bind phospholipids with high affinity and specificity. The Scintillation Proximity Assay is based on the properties of weakly emitting isotopes (such as ^3H, ^125I, ^33P). Coating SPA beads with neomycin allows the detection of phosphorylated lipid substrates after incubation with recombinant PI3K and radioactive ATP in the same well, by capturing the radioactive phospholipids to the SPA beads through their specific binding to neomycin.
To a 384 wells MTP containing 5 μl of a chemical compound library (containing 6% DMSO), the following assay components are added. 1) 5 μl (58 ng) of Human recombinant GST-PI3Kγ (in Hepes 40 mM, pH 7.4, DTT 1 mM and ethylenglycol 5%) 2) 10 μl of lipid micelles and 3) 10 μl of Kinase buffer ([^33P]γ-ATP 45 μM/60 nCi, MgCl2 30 mM, DTT 1 mM, P-Glycerophosphate 1 mM, NaVO4 100 μM, Na Cholate 0.3%, in Hepes 40 mM, pH 7.4). After incubation at room temperature for 180 minutes, with gentle agitation, the reaction is stopped by addition of 60 μl of a solution containing 100 μg of neomycin-coated PVT SPA beads in PBS containing ATP 10 mM and EDTA 5 mM. The assay is further incubated at room temperature for 60 minutes with gentle agitation to allow binding of phospholipids to neomycin-SPA beads. After precipitation of the neomycin-coated PVT SPA beads for 5 minutes at 1500×g, radioactive PtdIns(3)P is quantified by scintillation counting in a Wallac MicroBeta™ plate counter.
The values indicated in respect of PI3K γ refer to the IC50 (μM), i.e. the amount necessary to achieve 50% inhibition of said target. Said values show a considerable potency of the azolidinone-vinyl fused-benzene compounds with regard to PI3Kγ.

The term inhibition denotes the change of the read-out against control, counted positive when it falls. A word on the IC50: it is the midpoint of a concentration-inhibition curve.

Sequence of PI3Kγ (P48736 whole entry): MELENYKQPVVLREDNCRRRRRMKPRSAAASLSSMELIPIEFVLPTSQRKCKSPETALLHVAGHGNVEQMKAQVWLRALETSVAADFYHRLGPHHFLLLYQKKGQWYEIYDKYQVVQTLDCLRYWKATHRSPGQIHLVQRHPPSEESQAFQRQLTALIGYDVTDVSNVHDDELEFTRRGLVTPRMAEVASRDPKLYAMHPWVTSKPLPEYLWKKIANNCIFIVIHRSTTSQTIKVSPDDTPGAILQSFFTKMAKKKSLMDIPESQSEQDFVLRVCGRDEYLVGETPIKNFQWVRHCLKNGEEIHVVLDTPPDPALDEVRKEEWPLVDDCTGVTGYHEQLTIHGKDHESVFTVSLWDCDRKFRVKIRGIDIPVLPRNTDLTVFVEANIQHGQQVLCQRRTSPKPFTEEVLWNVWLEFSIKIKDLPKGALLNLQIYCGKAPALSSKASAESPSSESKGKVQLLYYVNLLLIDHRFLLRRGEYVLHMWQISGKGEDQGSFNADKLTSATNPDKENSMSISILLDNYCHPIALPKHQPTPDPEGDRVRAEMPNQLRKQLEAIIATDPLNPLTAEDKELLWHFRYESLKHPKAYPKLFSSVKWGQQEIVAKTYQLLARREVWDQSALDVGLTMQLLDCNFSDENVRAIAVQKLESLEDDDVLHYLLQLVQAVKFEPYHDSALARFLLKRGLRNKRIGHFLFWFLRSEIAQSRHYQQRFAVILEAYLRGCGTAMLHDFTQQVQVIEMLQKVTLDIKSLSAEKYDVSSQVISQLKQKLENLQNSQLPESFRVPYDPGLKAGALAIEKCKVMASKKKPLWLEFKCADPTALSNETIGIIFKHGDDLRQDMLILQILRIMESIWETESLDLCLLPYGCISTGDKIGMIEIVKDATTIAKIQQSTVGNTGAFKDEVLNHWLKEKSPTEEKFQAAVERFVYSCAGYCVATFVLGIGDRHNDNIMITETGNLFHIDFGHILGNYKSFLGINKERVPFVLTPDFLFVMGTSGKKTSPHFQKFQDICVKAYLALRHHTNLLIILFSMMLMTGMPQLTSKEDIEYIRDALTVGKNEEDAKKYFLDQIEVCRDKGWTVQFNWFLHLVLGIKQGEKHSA

On to `O=C1NC(=O)/C(=C/c2ccc3c(c2)OCO3)S1` [Example 1, (5Z)-5-(1,3-benzodioxol-5-ylmethylene)-1,3-thiazolidine-2,4-dione], for which the inhibition at 10 µM in test [1] is 80%. For the same compound, at PI3Kγ, the IC50 was determined as 0.05 µM.
For the compound `CN1C(=O)COc2ccc(/C=C3\SC(=O)NC3=O)cc21` [Example 10, (5Z)-5-[(4-methyl-3-oxo-3,4-dihydro-2H-1,4-benzoxazin-6-yl)methylene]-1,3-thiazolidine-2,4-dione], the IC50 at PI3Kγ amounted to 0.03 µM.
`O=C1NC(=S)S/C1=C/c1ccc2c(c1)OCO2` [Example 2, (5E)-5-(1,3-benzodioxol-5-ylmethylene)-2-thioxo-1,3-thiazolidin-4-one]: in test [1], the inhibition at 10 µM is 80%. Besides, the IC50 on PI3Kγ came out at 0.06 µM.
With `O=C1NC(=O)/C(=C/c2ccc3c(c2)CCO3)S1` [Example 4, (5Z)-5-(2,3-dihydro-1-benzofuran-5-ylmethylene)-1,3-thiazolidine-2,4-dione], in test [1], the inhibition at 10 µM turned out to be 80%.
